Source: patent US8471005B2 (Cephalon, Inc., priority 2008, dated 2013)
Like-named read-outs stand apart in the source and are kept apart here.

Columns and labels:
ALK = target: T1, ALK (Homo sapiens, UniProt Q9UM73); experiment: ALK Kinase Assay (ELISA/TRF, PLC-γ substrate); assay type: biochemical; conditions: read-out: ALK Potency
T1 construct: host or cells: baculovirus expression system
Summary of the method: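 First, plates are coated with substrate (phospholipase C-γ, 10 μg/mL, TBS). Next, 30 ng/ml ALK initiates phosphorylation for 15 min at 37° C. Then Eu-N1 PT66 antibody is added for detection, and a nonlinear dose-response fit of percent inhibition yields IC50.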

JAK2 = target: T2, JAK2 (Homo sapiens, UniProt O60674); experiment: Recombinant Human JAK2 Kinase Assay (TRF); assay type: biochemical; conditions: read-out: JAK2 Potency
T2 construct: host or cells: baculovirus expression system
T2 sequence (O60674 whole entry): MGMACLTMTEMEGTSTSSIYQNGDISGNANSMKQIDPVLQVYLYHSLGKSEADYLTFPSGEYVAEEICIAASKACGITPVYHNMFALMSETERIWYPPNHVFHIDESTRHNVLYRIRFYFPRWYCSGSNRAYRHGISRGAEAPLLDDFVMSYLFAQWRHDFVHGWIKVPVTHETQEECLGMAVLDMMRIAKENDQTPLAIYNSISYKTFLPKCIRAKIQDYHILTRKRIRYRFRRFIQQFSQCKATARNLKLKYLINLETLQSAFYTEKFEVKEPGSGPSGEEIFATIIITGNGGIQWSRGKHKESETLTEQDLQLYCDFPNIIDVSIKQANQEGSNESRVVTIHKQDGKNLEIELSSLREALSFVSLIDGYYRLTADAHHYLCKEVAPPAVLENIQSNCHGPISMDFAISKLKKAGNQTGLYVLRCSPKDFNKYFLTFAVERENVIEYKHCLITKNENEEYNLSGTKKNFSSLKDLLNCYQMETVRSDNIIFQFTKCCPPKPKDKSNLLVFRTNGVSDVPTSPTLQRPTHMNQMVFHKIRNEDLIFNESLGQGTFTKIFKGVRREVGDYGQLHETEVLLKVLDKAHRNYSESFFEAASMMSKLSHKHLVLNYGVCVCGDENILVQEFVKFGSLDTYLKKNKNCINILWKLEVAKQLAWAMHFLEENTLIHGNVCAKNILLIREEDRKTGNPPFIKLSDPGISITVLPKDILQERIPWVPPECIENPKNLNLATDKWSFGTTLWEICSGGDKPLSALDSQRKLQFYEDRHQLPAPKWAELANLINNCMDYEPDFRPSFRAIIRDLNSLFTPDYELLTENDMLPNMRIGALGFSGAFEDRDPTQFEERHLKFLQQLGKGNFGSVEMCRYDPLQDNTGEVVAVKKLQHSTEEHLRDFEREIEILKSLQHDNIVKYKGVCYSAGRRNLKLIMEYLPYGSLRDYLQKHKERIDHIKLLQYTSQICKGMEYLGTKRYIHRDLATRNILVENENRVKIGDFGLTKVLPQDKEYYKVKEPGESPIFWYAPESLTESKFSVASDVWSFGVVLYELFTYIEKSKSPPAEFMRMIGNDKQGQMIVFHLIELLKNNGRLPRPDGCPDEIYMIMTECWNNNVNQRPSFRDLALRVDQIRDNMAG
Summary of the method: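 Baculovirus-expressed JAK2 (15 ng/ml) phosphorylated a biotinylated 15-mer peptide captured on Neutravidin-coated plates, in 20 mM HEPES pH 7.2 with 0.2 μM ATP, 1 mM MnCl2, 0.1% BSA and 2.5% DMSO. Reaction ran 20 min at room temperature; phosphopeptide was detected by time-resolved fluorescence with Eu-N1-labelled PY100 antibody.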

[1] = ALK kinase inhibition, 1 μM ATP
[2] = JAK2 kinase inhibition, 0.2 μM ATP

T1 sequence (Q9UM73 19-1620): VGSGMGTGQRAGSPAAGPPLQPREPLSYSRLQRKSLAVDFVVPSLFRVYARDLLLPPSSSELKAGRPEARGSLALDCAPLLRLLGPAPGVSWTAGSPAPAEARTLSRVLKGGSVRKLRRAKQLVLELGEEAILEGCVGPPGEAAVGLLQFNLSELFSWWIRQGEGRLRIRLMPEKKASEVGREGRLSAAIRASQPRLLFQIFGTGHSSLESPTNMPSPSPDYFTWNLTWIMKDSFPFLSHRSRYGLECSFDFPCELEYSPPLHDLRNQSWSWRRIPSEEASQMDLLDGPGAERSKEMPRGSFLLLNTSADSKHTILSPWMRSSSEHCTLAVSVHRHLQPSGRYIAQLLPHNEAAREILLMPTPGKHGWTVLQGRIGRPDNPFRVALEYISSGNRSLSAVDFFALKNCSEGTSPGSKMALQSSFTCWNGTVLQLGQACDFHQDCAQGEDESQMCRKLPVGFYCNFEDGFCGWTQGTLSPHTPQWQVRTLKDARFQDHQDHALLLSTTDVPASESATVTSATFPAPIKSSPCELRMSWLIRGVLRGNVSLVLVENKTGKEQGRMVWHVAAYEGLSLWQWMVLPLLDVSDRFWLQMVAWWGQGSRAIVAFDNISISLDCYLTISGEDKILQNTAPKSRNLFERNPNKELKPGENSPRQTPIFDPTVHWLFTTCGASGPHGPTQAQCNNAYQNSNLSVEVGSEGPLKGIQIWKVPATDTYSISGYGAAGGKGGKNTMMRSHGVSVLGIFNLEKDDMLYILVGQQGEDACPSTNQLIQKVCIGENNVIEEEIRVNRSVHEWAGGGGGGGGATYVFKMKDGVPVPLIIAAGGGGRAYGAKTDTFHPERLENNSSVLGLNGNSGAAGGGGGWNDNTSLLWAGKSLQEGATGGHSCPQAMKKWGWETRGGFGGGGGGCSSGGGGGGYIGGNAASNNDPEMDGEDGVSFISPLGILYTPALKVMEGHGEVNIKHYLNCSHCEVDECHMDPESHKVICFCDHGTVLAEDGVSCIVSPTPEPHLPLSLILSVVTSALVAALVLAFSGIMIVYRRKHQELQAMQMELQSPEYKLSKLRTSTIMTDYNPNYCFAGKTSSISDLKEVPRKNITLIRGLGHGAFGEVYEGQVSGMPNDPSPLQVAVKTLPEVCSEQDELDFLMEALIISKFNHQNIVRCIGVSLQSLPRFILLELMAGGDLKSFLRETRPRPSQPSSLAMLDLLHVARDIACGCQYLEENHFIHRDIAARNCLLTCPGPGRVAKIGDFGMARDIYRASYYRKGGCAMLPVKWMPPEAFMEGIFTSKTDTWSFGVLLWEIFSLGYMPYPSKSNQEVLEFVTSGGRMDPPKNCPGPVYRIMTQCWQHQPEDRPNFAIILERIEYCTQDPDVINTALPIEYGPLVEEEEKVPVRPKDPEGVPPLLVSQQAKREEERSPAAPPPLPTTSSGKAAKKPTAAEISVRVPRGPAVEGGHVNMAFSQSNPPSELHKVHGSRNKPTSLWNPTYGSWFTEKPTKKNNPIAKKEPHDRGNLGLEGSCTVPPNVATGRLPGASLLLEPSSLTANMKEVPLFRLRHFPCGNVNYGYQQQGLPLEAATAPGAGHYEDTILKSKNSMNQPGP

SMILES: COc1cc(C2CCN(CC(C)(C)O)CC2)ccc1Nc1ncc2ccc(-c3ccccc3OC)n2n1 [Example 865, 1-(4-{3-Methoxy-4-[7-(2-methoxy-phenyl)-pyrrolo[2,1-f][1,2,4]triazin-2-ylamino]-phenyl}-piperidin-1-yl)-2-methyl-propan-2-ol]
- IC50 (ALK; [1]): < 100 nM
- IC50 (JAK2; [2]): 100 to 1000 nM

SMILES: CN1C2CCC1CC(c1ccc(Nc3ncc4ccc(-c5cccc(S(=O)(=O)NC(C)(C)C)c5)n4n3)cc1)C2 (stereo not shown) [Example 943, N-tert-Butyl-3-{2-[4-(8-methyl-8-aza-bicyclo[3.2.1]oct-3-yl)-phenylamino]-pyrrolo[2,1-f][1,2,4]triazin-7-yl}-benzenesulfonamide]
- IC50 (ALK; [1]): 100 to 1000 nM
- IC50 (JAK2; [2]): < 100 nM

SMILES: COc1cc(N2CCC(N3CCOCC3)CC2)ccc1Nc1ncc2ccc(-c3ccccc3F)n2n1 [Example 1473, [7-(2-Fluoro-phenyl)-pyrrolo[2,1-f][1,2,4]triazin-2-yl]-[2-methoxy-4-(4-morpholin-4-yl-piperidin-1-yl)-phenyl]-amine]
- IC50 (ALK; ALK Kinase Inhibition): < 100 nM
- IC50 (JAK2; JAK2 Kinase Inhibition): < 100 nM

SMILES: COc1cc(N2CCC(CN3CCN(C)CC3)CC2)ccc1Nc1ncc2ccc(-c3ccccc3OC)n2n1 [Example 468, {2-Methoxy-4-[4-(4-methyl-piperazin-1-ylmethyl)-piperidin-1-yl]-phenyl}-[7-(2-methoxy-phenyl)-pyrrolo[2,1-f][1,2,4]triazin-2-yl]-amine]
- IC50 (ALK; ALK Kinase Inhibition): < 100 nM
- IC50 (JAK2; JAK2 Kinase Inhibition): 100 to 1000 nM

SMILES: CN1CCN(CCCOc2ccc(Nc3ncc4ccc(-c5cccnc5)n4n3)cc2)CC1 [Example 120, {4-[3-(4-Methyl-piperazin-1-yl)-propoxy]-phenyl}-(7-pyridin-3-yl-pyrrolo[2,1-f][1,2,4]triazin-2-yl)-amine]
- IC50 (ALK; ALK Kinase Inhibition): 100 to 1000 nM
- IC50 (JAK2; JAK2 Kinase Inhibition): < 100 nM

SMILES: CN(c1ncccc1-c1ccc2cnc(Nc3ccc(C4CCN(CC(N)=O)CC4)cc3)nn12)S(C)(=O)=O [Example 1258, 2-[4-(4-{7-[2-(Methanesulfonyl-methyl-amino)-pyridin-3-yl]-pyrrolo[2,1-f][1,2,4]triazin-2-ylamino}-phenyl)-piperidin-1-yl]-acetamide]
- IC50 (ALK; [1]): < 100 nM
- IC50 (JAK2; [2]): < 100 nM

SMILES: O=S(=O)(CC1CC1)c1cccc(-c2ccc3cnc(Nc4ccc5[nH]ncc5c4)nn23)c1 [Example 1314]
- IC50 (ALK; [1]): 1000 to 10000 nM
- IC50 (JAK2; [2]): < 100 nM

SMILES: C[C@H](O)CN1CCC(c2ccc(Nc3ncc4ccc(-c5cccc(S(C)(=O)=O)c5)n4n3)cc2)CC1 [Example 1431, (S)-1-(4-{4-[7-(3-Methanesulfonyl-phenyl)-pyrrolo[2,1-f][1,2,4]triazin-2-ylamino]-phenyl}-piperidin-1-yl)-propan-2-ol]
- IC50 (ALK; ALK Kinase Inhibition): 100 to 1000 nM
- IC50 (JAK2; JAK2 Kinase Inhibition): < 100 nM

SMILES: CN1CCN(c2ccc(Nc3ncc4ccc(Sc5ccncc5)n4n3)cc2)CC1 [Example 1117, [4-(4-Methyl-piperazin-1-yl)-phenyl]-[7-(pyridin-4-ylsulfanyl)-pyrrolo[2,1-f][1,2,4]triazin-2-yl]-amine]
- IC50 (ALK; [1]): 1000 to 10000 nM
- IC50 (JAK2; [2]): < 100 nM

SMILES: CN(C)Cc1ccccc1-c1ccc2cnc(Nc3ccc(N4CCOCC4)cc3)nn12 [Example 1035, [7-(2-Dimethylaminomethyl-phenyl)-pyrrolo[2,1-f][1,2,4]triazin-2-yl]-(4-morpholin-4-yl-phenyl)-amine]
- IC50 (ALK; [1]): 1000 to 10000 nM
- IC50 (JAK2; [2]): 100 to 1000 nM

SMILES: COc1ccc(Cl)cc1-c1ccc2cnc(Nc3cccc(N4CCN(C[C@H](C)O)CC4)c3)nn12 [Example 211, (S)-1-(4-{3-[7-(5-Chloro-2-methoxy-phenyl)-pyrrolo[2,1-f][1,2,4]triazin-2-ylamino]-phenyl}-piperazin-1-yl)-propan-2-ol]
- IC50 (ALK; ALK Kinase Inhibition): < 100 nM
- IC50 (JAK2; JAK2 Kinase Inhibition): < 100 nM

SMILES: CC(=O)c1ccccc1-c1ccc2cnc(Nc3ccc(N4CCOCC4)cc3)nn12 [Example 400, 1-{2-[2-(4-Morpholin-4-yl-phenylamino)-pyrrolo[2,1-f][1,2,4]triazin-7-yl]-phenyl}-ethanone]
- IC50 (ALK; ALK Kinase Inhibition): 1000 to 10000 nM
- IC50 (JAK2; JAK2 Kinase Inhibition): < 100 nM

SMILES: COc1ccccc1-c1ccc2cnc(-c3nnc(C)[nH]3)nn12 [Example 1501, 7-(2-Methoxy-phenyl)-2-(5-methyl-4H-[1,2,4]triazol-3-yl)-pyrrolo[2,1-f][1,2,4]triazine]
- IC50 (ALK; ALK Kinase Inhibition): > 10000 nM
- IC50 (JAK2; JAK2 Kinase Inhibition): > 10000 nM

SMILES: CN1CCN(c2ccc(Nc3ncc4ccc(C5=CCN(C(=O)OC(C)(C)C)CC5)n4n3)cc2)CC1 [Example 1135, 4-{2-[4-(4-Methyl-piperazin-1-yl)-phenylamino]-pyrrolo[2,1-f][1,2,4]triazin-7-yl}-3,6-dihydro-2H-pyridine-1-carboxylic acid tert-butyl ester]
- IC50 (ALK; [1]): 100 to 1000 nM
- IC50 (JAK2; [2]): < 100 nM

SMILES: CN1CCN(c2ccc(Nc3ncc4ccc(-c5ccccc5CNCCS(C)(=O)=O)n4n3)cc2)CC1 [Example 1199, (7-{2-[(2-M ethanesulfonyl-ethylamino)-methyl]-phenyl}-pyrrolo[2,1-f][1,2,4]triazin-2-yl)-[4-(4-methyl-piperazin-1-yl)-phenyl]-amine]
- IC50 (ALK; [1]): 1000 to 10000 nM
- IC50 (JAK2; [2]): < 100 nM

SMILES: CN(c1ccccc1-c1ccc2cnc(Nc3ccc4nc(C(C)(C)C)[nH]c4c3)nn12)S(C)(=O)=O [Example 1341, N-{2-[2-(2-tert-Butyl-3H-benzimidazol-5-ylamino)-pyrrolo[2,1-f][1,2,4]triazin-7-yl]-phenyl}-N-methyl-methanesulfonamide]
- IC50 (ALK; [1]): 100 to 1000 nM
- IC50 (JAK2; [2]): < 100 nM

SMILES: COc1ccccc1-c1ccc2cnc(Nc3ccc4cn(CCN5CCOCC5)nc4c3)nn12 [Example 1350, [7-(2-Methoxy-phenyl)-pyrrolo[2,1-f][1,2,4]triazin-2-yl]-[2-(2-morpholin-4-yl-ethyl)-2H-indazol-6-yl]-amine]
- IC50 (ALK; [1]): 1000 to 10000 nM
- IC50 (JAK2; [2]): < 100 nM

SMILES: CCN1CCOC(c2ccc(Nc3ncc4ccc(-c5cnn(C)c5)n4n3)cc2)C1 (stereo not shown) [Example 1189, [4-(4-Ethyl-morpholin-2-yl)-phenyl]-[7-(1-methyl-1H-pyrazol-4-yl)-pyrrolo[2,1-f][1,2,4]triazin-2-yl]-amine]
- IC50 (ALK; [1]): 100 to 1000 nM
- IC50 (JAK2; [2]): < 100 nM

SMILES: COc1cc(C2CCNCC2)ccc1Nc1ncc2ccc(-c3ccccc3OC)n2n1 [Example 820, [7-(2-Methoxy-phenyl)-pyrrolo[2,1-f][1,2,4]triazin-2-yl]-(2-methoxy-4-piperidin-4-yl-phenyl)-amine]
- IC50 (ALK; [1]): < 100 nM
- IC50 (JAK2; [2]): 100 to 1000 nM

SMILES: CS(=O)(=O)c1cccc(-c2ccc3cnc(Nc4ccc(C5CCNCC5O)cc4)nn23)c1 (stereo not shown) [Example 1018, 4-{4-[7-(3-methanesulfonyl-phenyl)-pyrrolo[2,1-f][1,2,4]triazin-2-ylamino]-phenyl}-piperidine-3-ol]
- IC50 (ALK; [1]): 100 to 1000 nM
- IC50 (JAK2; [2]): < 100 nM

SMILES: CN1CCN(c2ccc(Nc3ncc4ccc(C5=CCN(S(C)(=O)=O)CC5)n4n3)cc2)CC1 [Example 1139, [7-(1-Methane sulfonyl-1,2,3,6-tetrahydro-pyridin-4-yl)-pyrrolo[2,1-f][1,2,4]triazin-2-yl]-[4-(4-methyl-piperazin-1-yl)-phenyl]-amine]
- IC50 (ALK; [1]): 100 to 1000 nM
- IC50 (JAK2; [2]): < 100 nM

SMILES: COCCn1cc(-c2ccc3cnc(Nc4cccc(N5CCN(C)CC5)c4)nn23)cn1 [Example 972, {7-[1-(2-Methoxy-ethyl)-1H-pyrazol-4-yl]-pyrrolo[2,1-f][1,2,4]triazin-2-yl}-[3-(4-methyl-piperazin-1-yl)-phenyl]-amine]
- IC50 (ALK; [1]): 1000 to 10000 nM
- IC50 (JAK2; [2]): < 100 nM

SMILES: COc1cc(N2CCC(NCCO)CC2)ccc1Nc1ncc2ccc(-c3ccccc3OC)n2n1 [Example 797, 2-(1-{3-Methoxy-4-[7-(2-methoxy-phenyl)-pyrrolo[2,1-f][1,2,4]triazin-2-ylamino]-phenyl}-piperidin-4-ylamino)-ethanol]
- IC50 (ALK; [1]): < 100 nM
- IC50 (JAK2; [2]): < 100 nM

SMILES: CN1CCN(C(=O)c2ccc(Nc3ncc4ccc(-c5cccc(Cl)c5)n4n3)cc2)CC1 [Example 320, {4-[7-(3-Chloro-phenyl)-pyrrolo[2,1-f][1,2,4]triazin-2-ylamino]-phenyl}-(4-methyl-piperazin-1-yl)-methanone]
- IC50 (ALK; ALK Kinase Inhibition): 100 to 1000 nM
- IC50 (JAK2; JAK2 Kinase Inhibition): < 100 nM

SMILES: CN(C)S(=O)(=O)c1ccc(-c2ccc3cnc(Nc4ccc(N5CCOCC5)cc4)nn23)cc1 [Example 71, N,N-Dimethyl-4-[2-(4-morpholin-4-yl-phenylamino)-pyrrolo[2,1-f][1,2,4]triazin-7-yl]-benzenesulfonamide]
- IC50 (ALK; ALK Kinase Inhibition): > 10000 nM
- IC50 (JAK2; JAK2 Kinase Inhibition): < 100 nM

SMILES: CCS(=O)(=O)c1cccc(-c2ccc3cnc(Nc4ccc5nc(C(F)(F)F)[nH]c5c4)nn23)c1 [Example 1313, [7-(3-Ethanesulfonyl-phenyl)-pyrrolo[2,1-f][1,2,4]triazin-2-yl]-(2-trifluoromethyl-3H-benzimidazol-5-yl)-amine]
- IC50 (ALK; [1]): > 10000 nM
- IC50 (JAK2; [2]): < 100 nM

SMILES: CC(=O)Nc1cc(Nc2ncc3ccc(-c4cccc(Cl)c4)n3n2)ccc1C(C)C [Example 303, N-{5-[7-(3-Chloro-phenyl)-pyrrolo[2,1-f][1,2,4]triazin-2-ylamino]-2-isopropyl-phenyl}-acetamide]
- IC50 (ALK; ALK Kinase Inhibition): 1000 to 10000 nM
- IC50 (JAK2; JAK2 Kinase Inhibition): < 100 nM

SMILES: COc1ccc(Cl)cc1-c1ccc2cnc(Nc3ccc(C(=O)N4CCN(C)CC4)cc3)nn12 [Example 319, {4-[7-(5-Chloro-2-methoxy-phenyl)-pyrrolo[2,1-f][1,2,4]triazin-2-ylamino]-phenyl}-(4-methyl-piperazin-1-yl)-methanone]
- IC50 (ALK; ALK Kinase Inhibition): 100 to 1000 nM
- IC50 (JAK2; JAK2 Kinase Inhibition): < 100 nM

SMILES: CN(c1ccccc1-c1ccc2cnc(Nc3ccc(C4(C#N)CCN(CC(N)=O)CC4)cc3)nn12)S(C)(=O)=O [Example 1549, 2-[4-Cyano-4-(4-{7-[2-(methanesulfonyl-methyl-amino)-phenyl]-pyrrolo[2,1-f][1,2,4]triazin-2-ylamino}-phenyl)-piperidin-1-yl]-acetamide]
- IC50 (ALK; ALK Kinase Inhibition): < 100 nM
- IC50 (JAK2; JAK2 Kinase Inhibition): < 100 nM
